Results taken from patent US20240425496A1, “AZETIDINYL PYRIMIDINES AND USES THEREOF” (Aerie Pharmaceuticals, Inc., priority 2021, published 2024).

Legend:
TYK2 = TYK2 (Homo sapiens (Human), UniProt P29597); experiment: JAK kinase assay (KINASE-GLO luminescent), TYK2 enzyme; type: biochemical; details: TYK2 enzyme 10 nM, Abl peptide substrate
Protocol: (§1) All compounds were initially prepared as 10 mM stocks in anhydrous dimethylsulfoxide (DMSO). […] Test compounds were then serially diluted 1:5 in DMSO for an 11-point concentration response and further diluted in the assay buffer bringing all compound concentrations to a final range of 100 μM to 10 μM in 2.5% DMSO. […] The reaction was initiated by the addition of 10 μL of 4× stock solution ATP (2 μM). Reactions were thoroughly mixed manually, covered, and allowed to incubate at room temperature for 75 min. Protein kinase activity was quantitated using Promega's KINASE-GLO™ luminescent Kinase Assay Kit according to the manufacturer's directions. ATP concentrations remaining in Test wells following the termination of the enzymatic reaction were compared against control wells containing equivalent amounts of DMSO containing no inhibitor (CTRL). […] Percent of Control (POC) values were determined for each concentration of compound tested according to the equation: […]
(§2) IC50 values were calculated using the following 4-parameter logistic curve-fitting algorithm:
(§3) Compounds were prepared in the exact same manner as described in the ROCK Kinase Assay with the exception to the substrate and enzyme. […] All other steps and solutions remain identical to the ROCK Kinase Assay above.

JAK1 = JAK1 (Homo sapiens (Human), UniProt P23458); experiment: JAK kinase assay (KINASE-GLO luminescent), JAK1 enzyme; type: biochemical; details: JAK1 enzyme 10 nM, Abl peptide substrate
Chain of JAK1 (P23458 whole entry, species assumed): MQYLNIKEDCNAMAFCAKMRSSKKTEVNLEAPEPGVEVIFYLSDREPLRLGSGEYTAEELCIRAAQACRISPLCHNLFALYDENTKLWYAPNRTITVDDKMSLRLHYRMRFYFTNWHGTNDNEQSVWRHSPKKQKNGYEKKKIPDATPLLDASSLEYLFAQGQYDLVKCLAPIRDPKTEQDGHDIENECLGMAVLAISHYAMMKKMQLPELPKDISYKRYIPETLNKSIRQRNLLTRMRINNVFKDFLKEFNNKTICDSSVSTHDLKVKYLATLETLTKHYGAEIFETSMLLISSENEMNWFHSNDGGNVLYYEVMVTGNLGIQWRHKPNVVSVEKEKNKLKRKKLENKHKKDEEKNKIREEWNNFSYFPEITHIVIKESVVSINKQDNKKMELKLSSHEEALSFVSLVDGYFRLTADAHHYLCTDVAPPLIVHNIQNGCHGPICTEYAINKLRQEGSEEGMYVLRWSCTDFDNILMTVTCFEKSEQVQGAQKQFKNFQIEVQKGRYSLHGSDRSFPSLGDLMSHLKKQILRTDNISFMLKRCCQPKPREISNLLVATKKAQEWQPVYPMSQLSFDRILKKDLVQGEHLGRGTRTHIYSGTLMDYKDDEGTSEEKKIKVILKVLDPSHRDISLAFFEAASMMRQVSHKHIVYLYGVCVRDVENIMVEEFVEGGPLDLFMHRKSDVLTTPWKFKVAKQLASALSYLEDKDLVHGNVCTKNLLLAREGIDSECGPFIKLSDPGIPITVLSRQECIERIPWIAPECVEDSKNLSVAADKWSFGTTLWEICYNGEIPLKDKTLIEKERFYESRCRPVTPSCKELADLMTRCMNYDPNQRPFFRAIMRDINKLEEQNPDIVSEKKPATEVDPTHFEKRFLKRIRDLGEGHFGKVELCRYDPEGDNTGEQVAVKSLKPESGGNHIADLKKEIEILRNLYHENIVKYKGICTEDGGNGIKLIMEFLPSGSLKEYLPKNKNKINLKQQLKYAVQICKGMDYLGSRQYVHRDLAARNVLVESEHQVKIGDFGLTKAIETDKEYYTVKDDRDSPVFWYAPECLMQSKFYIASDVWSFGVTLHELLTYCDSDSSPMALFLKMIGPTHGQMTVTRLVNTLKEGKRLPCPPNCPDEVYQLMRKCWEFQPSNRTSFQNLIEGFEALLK
Protocol: as §1, §2, §3

Chain of TYK2 (P29597 whole entry, species assumed): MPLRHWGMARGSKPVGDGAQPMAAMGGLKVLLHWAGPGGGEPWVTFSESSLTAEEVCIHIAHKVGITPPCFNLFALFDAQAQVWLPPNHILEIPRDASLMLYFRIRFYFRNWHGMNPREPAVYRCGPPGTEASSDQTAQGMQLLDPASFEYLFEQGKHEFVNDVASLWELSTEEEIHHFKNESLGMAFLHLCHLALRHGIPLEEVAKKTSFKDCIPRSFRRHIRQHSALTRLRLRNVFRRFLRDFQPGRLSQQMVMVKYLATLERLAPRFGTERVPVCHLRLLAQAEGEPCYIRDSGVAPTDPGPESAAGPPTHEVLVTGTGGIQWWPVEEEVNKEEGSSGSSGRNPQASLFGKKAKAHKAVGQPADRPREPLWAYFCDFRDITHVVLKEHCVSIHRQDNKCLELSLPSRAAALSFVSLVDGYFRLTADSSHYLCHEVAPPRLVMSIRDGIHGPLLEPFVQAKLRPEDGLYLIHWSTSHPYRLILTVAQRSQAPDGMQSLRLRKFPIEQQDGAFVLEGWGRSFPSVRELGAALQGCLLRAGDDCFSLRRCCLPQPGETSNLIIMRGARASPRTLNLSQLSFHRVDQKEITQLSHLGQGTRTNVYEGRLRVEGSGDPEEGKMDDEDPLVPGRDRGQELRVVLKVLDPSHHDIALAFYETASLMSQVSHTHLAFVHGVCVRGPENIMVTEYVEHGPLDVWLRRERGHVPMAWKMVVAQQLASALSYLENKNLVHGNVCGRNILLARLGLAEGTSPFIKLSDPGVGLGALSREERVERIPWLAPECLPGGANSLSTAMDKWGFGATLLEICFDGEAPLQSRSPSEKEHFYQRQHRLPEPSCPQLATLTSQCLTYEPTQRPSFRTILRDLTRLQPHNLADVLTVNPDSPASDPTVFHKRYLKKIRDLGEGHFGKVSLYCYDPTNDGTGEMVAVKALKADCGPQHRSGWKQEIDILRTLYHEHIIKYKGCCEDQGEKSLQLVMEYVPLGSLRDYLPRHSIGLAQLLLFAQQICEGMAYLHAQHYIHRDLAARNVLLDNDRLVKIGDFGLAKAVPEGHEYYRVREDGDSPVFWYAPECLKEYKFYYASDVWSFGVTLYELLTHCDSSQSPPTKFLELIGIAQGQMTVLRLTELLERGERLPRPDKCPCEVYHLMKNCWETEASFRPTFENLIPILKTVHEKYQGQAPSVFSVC

Structure (SMILES) | IC50 (TYK2) | IC50 (JAK1)
CO[C@@H]1C[C@H]2CN(C3(CC#N)CN(c4nc(Nc5cc(C)ns5)ncc4C)C3)CCN2C1 [E72a] | < 10 nM | < 10 nM
Cc1cc(Nc2ncc(C)c(N3CC(CC#N)(N4CCN5CCN(C)CC5C4)C3)n2)sn1 (stereo not drawn) [E73a] | < 100 nM | < 100 nM
Cc1cc(Nc2ncc(F)c(N3CC(CC#N)(N4CCCCC4)C3)n2)sn1 [E74a] | < 20 nM | < 500 nM
COCCN1CCN(C2(CC#N)CN(c3nc(Nc4cc(C)ns4)ncc3C)C2)CC1 [E75] | < 10 nM | < 10 nM
Cc1cc(Nc2ncc(C)c(N3CC(CC#N)(N4CCN5C[C@H](F)C[C@@H]5C4)C3)n2)sn1 [E75a] | < 10 nM | < 50 nM
Cc1cc(Nc2ncc(C)c(N3CC(CC#N)(N4CCN5CC6(CC6)C[C@H]5C4)C3)n2)sn1 [E76a] | < 10 nM | < 10 nM
Cc1cc(Nc2ncc(C)c(N3CC(CC#N)(N4CCN5CCOC[C@@H]5C4)C3)n2)sn1 [E77a] | < 10 nM | < 50 nM
Cc1cc(Nc2ncc(C)c(N3CC(CC#N)(N4CCN5CCOC[C@H]5C4)C3)n2)sn1 [E78a] | < 10 nM | < 10 nM
Cc1cnc(Nc2ccc(C3(O)COC3)cc2)nc1N1CC(CC#N)(N2CCN(C)CC2)C1 [E79a] | < 10 nM | < 50 nM
Cc1cnc(Nc2cnn(C)c2)nc1N1CC(CC#N)(N2CCN(C)CC2)C1 [E80, 2-(1-(5-methyl-2-((1-methyl-1H-pyrazol-4-yl)amino)pyrimidin-4-yl)-3-(4-methylpiperazin-1-yl)azetidin-3-yl)acetonitrile] | < 20 nM | < 20 nM
Cc1cc(Nc2ncc(C)c(N3CC(CC#N)(N4CCN5CCCC[C@H]5C4)C3)n2)sn1 [E80a] | < 10 nM | < 10 nM
Cc1cnc(Nc2cnn(C)c2)nc1N1CC(CC#N)(N2CCC3(CC2)CC3(F)F)C1 [E81] | < 10 nM | < 10 nM
Cc1cc(Nc2ncc(C)c(N3CC(CC#N)(N4CCN5CC(F)(F)C[C@H]5C4)C3)n2)sn1 [E81a] | < 20 nM | < 20 nM
Cc1cnc(Nc2cnn(C)c2)nc1N1CC2(C1)CC2(F)F [E82] | < 20 nM | < 20 nM
Cc1cc(Nc2nccc(N3CC(CC#N)(N4CCN5CC6(CC6)C[C@H]5C4)C3)n2)sn1 [E82a] | < 20 nM | < 50 nM
Cc1cc(Nc2ncc(C)c(N3CC(CC#N)(N4CCN5CCC[C@]5(C)C4)C3)n2)sn1 [E83a] | < 50 nM | < 100 nM
Cc1cc(Nc2ncc(C)c(N3CC(CC#N)(N4CCN5CCC[C@@]5(C)C4)C3)n2)sn1 [E84a] | < 10 nM | < 10 nM
Cc1cc(Nc2ncc(C)c(N3CC(CC#N)(N4CCN5CCCC[C@@H]5C4)C3)n2)sn1 [E85a] | < 10 nM | < 50 nM
Cc1cc(Nc2ncc(C)c(N3CC(CC#N)(N4CCN5CC6CC5(C6)C4)C3)n2)sn1 [E86a] | < 20 nM | < 100 nM
Cc1cc(Nc2ncc(C)c(N3CC(CC#N)(N4CCCN5CCC[C@H]5C4)C3)n2)sn1 [E87a] | < 10 nM | < 10 nM
Cc1cc(Nc2ncc(C)c(N3CC(CC#N)(N4CC5(C4)CC5(F)F)C3)n2)sn1 [E88a] | < 10 nM | < 10 nM

Structure (SMILES) | IC50 (TYK2) | IC50 (JAK1)
Cc1cc(Nc2ncc(C)c(N3CC(CC#N)(N4CCN5CCC5C4)C3)n2)sn1 (stereo not drawn) [E89a] | < 50 nM | < 100 nM
Cc1cc(Nc2ncc(C)c(N3CC(CC#N)(N4CCn5cccc5C4)C3)n2)sn1 [E90a] | < 10 nM | < 10 nM
Cc1cc(Nc2ncc(C)c(N3CC(CC#N)(N4CCn5c(cnc5C)C4)C3)n2)sn1 [E91a] | < 10 nM | < 10 nM
Cc1cc(Nc2ncc(C)c(N3CC(CC#N)(N4C[C@@H]5OCCO[C@@H]5C4)C3)n2)sn1 [E92a] | < 10 nM | < 10 nM
Cc1cc(Nc2ncc(C)c(N3CC(CC#N)(N4CCn5cncc5C4)C3)n2)sn1 [E93a] | < 10 nM | < 10 nM
Cc1cc(Nc2ncc(C)c(N3CC(CC#N)(N4CCN(C)C5CC54)C3)n2)sn1 (stereo not drawn) [E94a] | < 10 nM | < 10 nM
Cc1cc(Nc2ncc(C)c(N3CC(CC#N)(N4CC5(CC5)C4)C3)n2)sn1 [E95a] | < 10 nM | < 50 nM
CCS(=O)(=O)C1CN(C2(CC#N)CN(c3nc(Nc4cc(C)ns4)ncc3C)C2)C1 [E96a] | < 50 nM | < 100 nM
Cc1cc(Nc2nccc(N3CC(CC#N)(N4CCN5C[C@H](F)C[C@H]5C4)C3)n2)sn1 [E97a] | < 10 nM | < 50 nM
Cc1cc(Nc2ncc(C)c(N3CC(CC#N)(N4CC5OCCN(C)C5C4)C3)n2)sn1 (stereo not drawn) [E98a] | < 10 nM | < 50 nM
Cc1cc(Nc2ncc(C)c(N3CC(CC#N)(OC4CC5(CC5)C4)C3)n2)sn1 [E99a] | < 10 nM | < 10 nM
COC(=O)CC1(N2CCN3CCC[C@H]3C2)CN(c2nc(Nc3cc(C)ns3)ncc2C)C1 [E100a] | < 10 nM | < 10 nM
COc1cnc(Nc2cc(C)ns2)nc1N1CC(CC#N)(N2CCN3C[C@H](F)C[C@H]3C2)C1 [E101a] | < 10 nM | < 10 nM
Cc1cc(Nc2ncc(C3CC3)c(N3CC(CC#N)(N4CCN5C[C@H](F)C[C@H]5C4)C3)n2)sn1 [E102a] | < 10 nM | < 10 nM
Cc1cc(Nc2ncc(C)c(N3CC(CCO)(N4CCN5CCC[C@H]5C4)C3)n2)sn1 [E103a] | < 10 nM | < 10 nM
Cc1cc(Nc2ncc(C)c(N3CC(CC#N)(N4C[C@H]5CN(C)C[C@H]5C4)C3)n2)sn1 [E104a] | < 100 nM | < 100 nM
Cc1cc(Nc2ncc(C)c(N3CC(CC#N)(N4CC5CN(C)CC5C4)C3)n2)sn1 (stereo not drawn) [E105a] | < 50 nM | < 100 nM
Cc1cc(Nc2ncc(C)c(N3CC(CC#N)(OC4CC5(C4)CC5(F)F)C3)n2)sn1 (stereo not drawn) [E106a] | < 10 nM | < 10 nM
Cc1cc(Nc2ncc(C)c(N3CC(C4CC4)(N4CCCCC4)C3)n2)sn1 [E107a] | < 50 nM | < 100 nM
Cc1cc(Nc2ncc(C)c(N3CC(C4CC4)C3)n2)sn1 [E108a] | < 10 nM | < 50 nM
Cc1cc(Nc2ncc(C)c(N3CC(CC4CC4)C3)n2)sn1 [E109a] | < 10 nM | < 50 nM

Structure (SMILES) | IC50 (TYK2) | IC50 (JAK1)
Cc1cc(Nc2ncc(C)c(N3CC(N4CCN5C[C@H](F)C[C@H]5C4)C3)n2)sn1 [E110a] | < 10 nM | < 50 nM
Cc1cnc(Nc2ccc3c(c2)CN(C)C3)nc1N1CC(CC#N)(N2CCCC3(C2)CC3(F)F)C1 (stereo not drawn) [E111, 2-(3-(1,1-difluoro-5-azaspiro[2.5]octan-5-yl)-1-(5-methyl-2-((2-methylisoindolin-5-yl)amino)pyrimidin-4-yl)azetidin-3-yl)acetonitrile] | < 10 nM | < 10 nM
Cc1cc(Nc2ncc(C)c(N3CC(CC#N)(N4CCN5CC(C)(C)C[C@H]5C4)C3)n2)sn1 [E111a] | < 10 nM | < 10 nM
Cc1cc(Nc2ncc(C)c(N3CC(CC#N)(N4CC5(C4)CC(F)(F)CO5)C3)n2)sn1 [E112a] | < 50 nM | < 50 nM
Cc1cnc(Nc2ccc3c(c2)CN(C)C3)nc1N1CC(CC#N)(N2CCC3(CC2)CC3(F)F)C1 [E113] | < 10 nM | < 10 nM
Cc1cc(Nc2ncc(C)c(N3CC(CCCl)(N4CCCCC4)C3)n2)sn1 [E113a] | < 10 nM | < 10 nM
Cc1cnc(Nc2ccc3c(c2)CN(C)C3)nc1N1CC(CC#N)(N2CCC3(CC2)CC3)C1 [E114] | < 20 nM | < 20 nM
Cc1cc(Nc2ncc(C)c(N3CC(O)(CC#N)C3)n2)sn1 [E114a] | < 10 nM | < 20 nM
Cc1cnc(Nc2ccc(N3CCN(C)CC3)c(C(F)(F)F)c2)nc1N1CC2(C1)CC2(F)F [E115] | < 100 nM | < 250 nM
Cc1cc(Nc2ncc(C)c(N3CC(CC#N)(N4CCCN5CCCC5C4)C3)n2)sn1 (stereo not drawn) [E115a] | < 50 nM | < 200 nM
Cc1cnc(Nc2cccc(CN(C)C)c2)nc1N1CC(CC#N)(N2CCCC3(C2)CC3(F)F)C1 (stereo not drawn) [E116] | < 10 nM | < 10 nM
Cc1cc(Nc2ncc(C)c(N3CC(CCF)(N4CCCCC4)C3)n2)sn1 [E116a] | < 10 nM | < 50 nM
Cc1cc(Nc2ncc(C)c(N3CC(N)(CC#N)C3)n2)sn1 [E117-AA] | < 50 nM | < 100 nM
Cc1cc(Nc2ncc(C)c(N3C4CC3CN(CCC#N)C4)n2)sn1 [E117-AD] | < 1000 nM | < 1000 nM
Cc1cc(Nc2ncc(C)c(N3CC(CCF)(N4CCN5C[C@H](F)C[C@H]5C4)C3)n2)sn1 [E117-A] | < 10 nM | < 50 nM
Cc1cc(Nc2ncc(C)c(N3CC(CC#N)(N4CC5NCCOC5C4)C3)n2)sn1 (stereo not drawn) [E117-B] | < 100 nM | < 50 nM
Cc1cc(Nc2ncc(C)c(N3CC(CC#N)(N4CCC(F)(F)CC4)C3)n2)sn1 [E117-E] | < 5 nM | < 5 nM
Cc1cc(Nc2ncc(C)c(N3CC(CC#N)(N4CCN5CC6(CC6)C[C@H]5C4)C3)n2)sn1 [E117-G] | < 5 nM | < 5 nM
Cc1cc(Nc2ncc(C)c(N3CC(CC#N)(N4CCN(CCCF)CC4)C3)n2)sn1 [E117-J] | < 5 nM | < 5 nM
C#CC1(O)CN(c2nc(Nc3cc(C)ns3)ncc2C)C1 [E117-N] | < 5 nM | < 10 nM
Cc1cc(Nc2ncc(C)c(N3CC4(C3)CC4(F)F)n2)sn1 [E117-P] | < 5 nM | < 10 nM
